ChEMBL document CHEMBL5505969, “Discovery of new piperaquine hybrid analogs linked by triazolopyrimidine and pyrazolopyrimidine scaffolds with antiplasmodial and transmission blocking activities” (Eur J Med Chem, 2024)
pIC50: −log10 of the molar value. Activity calls are given as the source filed them. The rule behind the calls is not given here.

How the values were obtained:
[1] = system: Plasmodium falciparum; experiment: Antiplasmodial activity against sorbitol-synchronized ring stage chloroquine sensitive Plasmodium falciparum 3D7 infected in erythrocytes measured after 48 hrs by SYBR green dye based fluorescence analysis; type: functional, organism-based; settings: 3D7, Erythrocyte
[2] = system: Plasmodium falciparum; experiment: Antiplasmodial activity against GFP expressing sorbitol-synchronized ring stage laboratory adapted Plasmodium falciparum 3D7HT assessed as reduction in infectivity by measuring inhibition of gametocyte formation at 10 uM treated for 72 hrs followed by replacement with fresh media without compound for 24 hrs and measured on day 4 by giemsa staining based microscopic analysis; type: functional
[3] = target: T1, Dihydroorotate dehydrogenase (quinone), mitochondrial (Plasmodium falciparum (isolate 3D7)) (UniProt Q08210); experiment: Inhibition of Plasmodium falciparum DHODH assessed as residual activity at 100 uM measured over 60 secs by DCIP dye based colorimetric assay relative to control; settings: time > 60.0 sec
T1 sequence (whole entry): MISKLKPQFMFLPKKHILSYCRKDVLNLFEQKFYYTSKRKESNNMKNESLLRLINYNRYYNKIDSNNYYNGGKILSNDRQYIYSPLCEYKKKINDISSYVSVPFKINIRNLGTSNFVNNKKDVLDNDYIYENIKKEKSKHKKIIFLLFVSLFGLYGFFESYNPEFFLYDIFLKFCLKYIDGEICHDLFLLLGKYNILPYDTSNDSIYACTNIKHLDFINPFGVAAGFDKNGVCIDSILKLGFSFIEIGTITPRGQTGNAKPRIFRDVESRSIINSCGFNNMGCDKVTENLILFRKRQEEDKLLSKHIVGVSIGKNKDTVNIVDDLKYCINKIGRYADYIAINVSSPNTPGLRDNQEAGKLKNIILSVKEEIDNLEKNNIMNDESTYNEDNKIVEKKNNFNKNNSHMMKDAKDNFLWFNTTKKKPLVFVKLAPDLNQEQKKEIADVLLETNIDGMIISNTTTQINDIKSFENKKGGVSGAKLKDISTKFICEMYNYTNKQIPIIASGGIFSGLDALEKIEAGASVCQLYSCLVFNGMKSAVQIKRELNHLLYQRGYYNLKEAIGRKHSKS

[4] = system: Plasmodium falciparum; experiment: (§1) Antiplasmodial activity against sorbitol-synchronized ring stage chloroquine resistant Plasmodium falciparum K1 infected in erythrocytes measured after 48 hrs by SYBR green dye based fluorescence analysis; type: functional, organism-based; settings: K1, Erythrocyte
[5] = Cytotoxicity against human HepG2 cells assessed as reduction in cell viability incubated for 72 hrs by MTT assay; type: toxicity, cell-based
[6] = system: Plasmodium falciparum; experiment: Resistance index, ratio of IC50 for antiplasmodial activity against sorbitol-synchronized ring stage chloroquine resistant Plasmodium falciparum K1 infected in erythrocytes to IC50 for antiplasmodial activity against sorbitol-synchronized ring stage chloroquine sensitive Plasmodium falciparum 3D7 infected in erythrocytes; type: functional
[7] = system: Plasmodium berghei; experiment: Antiplasmodial activity against GFP-expressing Plasmodium berghei HSP70 infected in CD-1 mouse assessed as inhibition of ookinete formation at 10 uM measured after 22 hrs by giemsa staining based microscopic analysis; type: functional; settings: read-out: INH
[8] = target: T1, Dihydroorotate dehydrogenase (quinone), mitochondrial (Plasmodium falciparum (isolate 3D7)); experiment: Inhibition of Plasmodium falciparum DHODH at 100 uM measured over 60 secs by DCIP dye based colorimetric assay relative to control; settings: time > 60.0 sec
[9] = Selectivity index, ratio of CC50 for human HepG2 cells to IC50 for antiplasmodial activity against sorbitol-synchronized ring stage chloroquine sensitive Plasmodium falciparum 3D7 infected in erythrocytes; type: toxicity, cell-based; settings: Plasmodium falciparum 3D7 in erythrocytes, read-out: Ratio CC50/IC50
[10] = system: Plasmodium falciparum; experiment: (§2) Antiplasmodial activity against sorbitol-synchronized ring stage atovaquone resistant Plasmodium falciparum TM90C6B harboring Y268S mutation in CYTB gene, Y184F mutation in MDR1 gene, N51I/C59R/S108N mutation in DHFR gene and S436F/A437G/A581G mutation in DHPS gene infected in erythrocytes measured after 48 hrs by SYBR green dye based fluorescence analysis; type: functional, organism-based; settings: Erythrocyte
[11] = system: Plasmodium falciparum; experiment: Antiplasmodial activity against Plasmodium falciparum infected in erythrocytes assessed as reduction in parasite growth at 10 uM measured within 24 hrs; type: functional, organism-based; settings: Erythrocyte
[12] = system: Plasmodium falciparum; experiment: (§3) Resistance index, ratio of IC50 for antiplasmodial activity against sorbitol-synchronized ring stage atovaquone resistant Plasmodium falciparum TM90C6B harboring Y268S mutation in CYTB gene, Y184F mutation in MDR1 gene, N51I/C59R/S108N mutation in DHFR gene and S436F/A437G/A581G mutation in DHPS gene infected in erythrocytes to IC50 for antiplasmodial activity against sorbitol-synchronized ring stage chloroquine sensitive Plasmodium falciparum 3D7 infected in erythrocytes; type: functional
[13] = system: Plasmodium falciparum; experiment: as §1, with “2-(1,1-difluoroethyl)-5-methyl-N-(4-(pentafluoro-l6-sulfaneyl)phenyl)-[1,2,4]triazolo[1,5-a]pyrimidin-7-amine” for “chloroquine”, “Dd2” for “K1”; type: functional, organism-based; settings: Dd2, Erythrocyte
[14] = system: Plasmodium falciparum; experiment: Potency index, ratio of chloroquine IC50 to test compound IC50 for antiplasmodial activity against sorbitol-synchronized ring stage chloroquine resistant Plasmodium falciparum K1 infected in erythrocytes measured after 48 hrs by SYBR green dye based fluorescence analysis; type: functional, Erythrocyte
[15] = system: Plasmodium falciparum; experiment: Antiplasmodial activity against Plasmodium falciparum infected in erythrocytes assessed as induction of parasite death by measuring appearance of multiple pyknotic nuclei at 10 uM measured after 24 to 72 hrs; type: functional, organism-based; settings: Erythrocyte, time 24-72 hrs
[16] = system: Plasmodium falciparum; experiment: Resistance index, ratio of IC50 for antiplasmodial activity against sorbitol-synchronized ring stage 2-(1,1-difluoroethyl)-5-methyl-N-(4-(pentafluoro-l6-sulfaneyl)phenyl)-[1,2,4]triazolo[1,5-a]pyrimidin-7-amine resistant Plasmodium falciparum Dd2 infected in erythrocytes to IC50 for antiplasmodial activity against sorbitol-synchronized ring stage chloroquine sensitive Plasmodium falciparum 3D7 infected in erythrocytes; type: functional
[17] = system: Plasmodium falciparum; experiment: Antiplasmodial activity against sorbitol-synchronized ring stage MMV848 resistant Plasmodium falciparum 3D7 infected in erythrocytes measured after 48 hrs by SYBR green dye based fluorescence analysis; type: functional, organism-based; settings: 3D7, Erythrocyte
[18] = Ratio of IC50 for Plasmodium falciparum infected in erythrocytes measured after 24 hrs by SYBR green dye based fluorescence assay to IC50 for Plasmodium falciparum infected in erythrocytes measured after 72 hrs by SYBR green dye based fluorescence assay; type: functional, Erythrocyte
[19] = system: Plasmodium falciparum; experiment: as §2, with “chloroquine, mefloquine and pyrimethamine” for “atovaquone”, “Dd2” for “TM90C6B”, “N86F/M74I/ N75E/[…]” for “Y268S mutation in CYTB gene, Y184F”, “S436F/A437G/A613S” for “S436F/A437G/A581G”; type: functional, organism-based; settings: Dd2, Erythrocyte
[20] = system: Plasmodium falciparum; experiment: Resistance index, ratio of IC50 for antiplasmodial activity against sorbitol-synchronized ring stage MMV848 resistant Plasmodium falciparum 3D7 infected in erythrocytes to IC50 for antiplasmodial activity against sorbitol-synchronized ring stage chloroquine sensitive Plasmodium falciparum 3D7 infected in erythrocytes; type: functional
[21] = system: Plasmodium falciparum; experiment: as §3, with “chloroquine, mefloquine and pyrimethamine” for “atovaquone”, “Dd2” for “TM90C6B”, “N86F/M74I/ N75E/[…]” for “Y268S mutation in CYTB gene, Y184F”, “S436F/A437G/A613S” for “S436F/A437G/A581G”; type: functional
[22] = system: Plasmodium falciparum; experiment: Antiplasmodial activity against Plasmodium falciparum infected in erythrocytes assessed as reduction in parasite growth at 500 nM measured until 24 hrs; type: functional, organism-based; settings: Erythrocyte

SMILES | pIC50 [1] | inhibition at 10 µM [2] | Activity [3] | pIC50 [4] | CC50 at 72 h [5] | Percent inhibition of ookinete formation at 10 µM [7] | inhibition [8] | selectivity ratio [9] | pIC50 [13] | Ratio IC50 [16] | also measured
Cc1cc(NCCCCNc2ccnc3cc(Cl)ccc23)n2nc(C(F)(F)F)nc2n1 | 6.51 | 43% | 80.8% | 6.52 | > 25000 nM | 42% | < 50% | > 81 |  |  | Ratio IC50 [6]: 1
COc1cc(NC(C)CCCN)c2ncccc2c1 (stereo not given) [PRIMAQUINE] |  | 86% |  |  |  |  |  |  |  |  | 
Cc1cc(N2CCN(c3ccnc4cc(Cl)ccc34)CC2)n2nc(C)cc2n1 | 5.36 |  | 108% |  |  |  | < 50% |  |  |  | 
Cc1cc(NCCCCCCCNc2ccnc3cc(Cl)ccc23)n2nc(C)cc2n1 | 7.34 | 66.5% | 89.4% | 7.15 | 9700 nM | 43% | < 50% | 211 | 7.30 | 1 | pIC50 [10]: 7.40; Activity [11]: Active; Ratio IC50 [12]: 0.9; Ratio IC50 [14]: 3; Activity [15]: Active; Ratio IC50 [6]: 1.5; pIC50 [17]: 7.70; Ratio IC50 [18]: 0.8; pIC50 [19]: 7.42; Ratio IC50 [20]: 0.4; Ratio IC50 [21]: 0.8
CCN(CC)CCCC(C)Nc1ccnc2cc(Cl)ccc12 (stereo not given) [CHLOROQUINE] |  |  |  |  | 398000 nM |  |  |  |  |  | 
Cc1cc(NCCCCCCCNc2ccnc3cc(Cl)ccc23)n2ncnc2n1 | 6.96 | 2% | 73.5% | 6.52 | 16000 nM | 30% | < 50% | 146 | 6.64 | 2.1 | pIC50 [10]: 6.70; Ratio IC50 [12]: 2.2; pIC50 [17]: 6.92; pIC50 [19]: 6.49; Ratio IC50 [20]: 1.1; Ratio IC50 [21]: 2.9
CCc1nc(N)nc(N)c1-c1ccc(Cl)cc1 [PYRIMETHAMINE] |  |  |  |  |  |  |  |  |  |  | Activity [22]: inactive; Ratio IC50 [18]: 3
Cc1cc(NCCCCNc2ccnc3cc(Cl)ccc23)n2nc(C)nc2n1 |  |  | 92% |  | > 25000 nM | 0% | < 50% | > 100 |  |  | 
Cc1cc(N2CCN(c3ccnc4cc(Cl)ccc34)CC2)n2nc(C(F)(F)F)nc2n1 | 5.15 |  | 105% |  |  |  | < 50% |  |  |  | 
Cc1cc(Nc2ccc(S(F)(F)(F)(F)F)cc2)n2nc(C(C)(F)F)nc2n1 [DSM-265] | 8.40 |  | < 10% |  |  |  |  |  | 7.92 | 3 | 
